# Values of other authors in patent US20250366801A1, “ESTIMATION OF CEREBROVASCULAR RESERVE” (MedTrace Pharma A/S, priority 2024, published 2025).
# Conditions: single standard dose of 1000 mg intravenously; patients with atherosclerotic cerebrovascular disease (Vagal 2009)
smiles,measurement,value
"CC(=O)Nc1nnc(S(N)(=O)=O)s1 [Acetazolamide, acetazolamide]",time of peak cerebral blood flow augmentation after the intravenous bolus injection,10 to 15 min
